# Assay results reported in PubChem BioAssay (NCI).
#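 How tested: cells in 96-well plates exposed to compound for 48 hours at five concentrations. GI50 is the concentration that inhibits growth by half. Definition used: TGI = concentration required for complete inhibition of growth.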
# Experiments:
# Assay in all cases: DTP human tumour cell line panel, 48 h
# [1] = test system: MCF7 breast
# [2] = test system: RXF 393 renal
# [3] = test system: CAKI-1 renal
# [4] = test system: OVCAR-8 ovarian
# [5] = test system: SF-295 CNS
# [6] = test system: HCT-15 colon
# [7] = test system: SR leukemia
# [8] = test system: SNB-19 CNS
# [9] = test system: KM20L2 colon
Compound,TGI [1],TGI [2],TGI [3],TGI [4],TGI [5],TGI [6],TGI [7],TGI [8],GI50 [1],GI50 [2],GI50 [3],GI50 [4],GI50 [5],GI50 [6],GI50 [7],GI50 [8],TGI [9],GI50 [9]
NC(=S)N/N=C/c1ccc(N)cn1,> 10 µM,> 10 µM,> 10 µM,> 10 µM,> 10 µM,> 10 µM,> 10 µM,> 10 µM,,,,,,,,,,
O=[N+]([O-])c1ccc(Sc2nc(Cl)nc(NC3CCCC3)n2)cc1,> 10 µM,> 10 µM,> 10 µM,> 10 µM,> 10 µM,> 10 µM,> 10 µM,> 10 µM,> 10 µM,3.34 µM,3.9 µM,> 10 µM,> 10 µM,> 10 µM,> 10 µM,> 10 µM,,
COC1=C(Br)C(O)C2(C=C1Br)CC(C(=O)NCCCCNC(=O)C1=NOC3(C=C(Br)C(OC)=C(Br)C3O)C1)=NO2 (stereo not drawn),87.4 µM,69.6 µM,> 100 µM,> 100 µM,90.5 µM,> 100 µM,38.9 µM,> 100 µM,,,,,,,,,,
C=C1CCC2C3(C)COC(c4c(OC)cccc4OC)OC3CCC2(C)C1C/C=C1/C(=O)OCC1O (stereo not drawn),12.8 µM,3.55 µM,3.48 µM,11.5 µM,18.1 µM,7.87 µM,4.99 µM,29.9 µM,2.53 µM,1.92 µM,1.57 µM,3.09 µM,5.28 µM,2.28 µM,1.62 µM,14.6 µM,,
CC[C@@H](C(=O)[C@H](C)[C@H](O)[C@@H](C)[C@H]1O[C@H]([C@@H](CC)C(=O)O)CC[C@H]1C)C1O[C@]2(C=C[C@@H](O)[C@]3(CC[C@@](C)([C@H]4CC[C@](O)(CC)[C@H](C)O4)O3)O2)[C@H](C)C[C@@H]1C (stereo partly drawn),11.9 µM,1.47 µM,13.9 µM,> 100 µM,5.54 µM,26.5 µM,5.73 µM,4.25 µM,0.148 µM,0.0621 µM,0.637 µM,1.6 µM,0.474 µM,0.639 µM,0.0827 µM,0.204 µM,,
Cc1ccc(/C=C/C(=N/N=C(N)N)c2ccccc2)cc1,12.4 µM,4.03 µM,25.1 µM,10.9 µM,13.1 µM,13.8 µM,6.32 µM,17.3 µM,0.465 µM,1.62 µM,8.97 µM,2.98 µM,2.99 µM,2.74 µM,0.897 µM,4.21 µM,,
O=C(O)C1C2C=CC(C2)C1C(=O)O (stereo not drawn),> 100 µM,> 100 µM,> 100 µM,> 100 µM,> 100 µM,> 100 µM,> 100 µM,> 100 µM,> 100 µM,> 100 µM,> 100 µM,> 100 µM,> 100 µM,> 100 µM,> 100 µM,> 100 µM,,
Nc1ccccc1NC(=O)c1ccc(CN2CCC/C(=C\c3ccccn3)C2=O)cc1,> 100 µM,3.48 µM,9.19 µM,> 100 µM,11.7 µM,> 100 µM,> 100 µM,> 100 µM,0.797 µM,0.755 µM,1.41 µM,0.878 µM,1.92 µM,1.11 µM,0.47 µM,3.16 µM,,
NC1=NN(c2ccccc2)C(=O)C1/C(=N\NC(=O)c1cc2ccccc2cc1O)C(=O)Nc1cccc(C(F)(F)F)c1 (stereo not drawn),,> 100 µM,,> 100 µM,> 100 µM,,,> 100 µM,,,,,,,,,> 100 µM,
CC(C)=CCC1=C(OCC(=O)O)C(=O)c2ccccc2C1=O,96.3 µM,81.1 µM,> 100 µM,> 100 µM,41.4 µM,> 100 µM,> 100 µM,92.7 µM,,,,,,,,,,
COC(=O)C[CH2][Ge]([CH3])([CH3])[S]c1ccccc1,,23.3 µM,79.1 µM,83.8 µM,62.3 µM,28.8 µM,,81.8 µM,,4.08 µM,40.2 µM,25.2 µM,18 µM,15.4 µM,,32.2 µM,> 100 µM,38.4 µM
CCCCCCCCCCC/C=C\C[C@H](O)C/C=C1/C(=O)C=C[C@@H]1C/C=C\CCCC(=O)OC,4.08 µM,3.18 µM,5.62 µM,4.64 µM,6.74 µM,1.29 µM,3.97 µM,4.58 µM,0.754 µM,0.827 µM,1.07 µM,0.966 µM,1.37 µM,0.59 µM,0.72 µM,1.24 µM,,
CSc1nc2c(nc(N)n2C2OC(COC(C)=O)C(OC(C)=O)C(OC(C)=O)C2OC(C)=O)c(=O)n1C (stereo not drawn),,> 100 µM,> 100 µM,> 100 µM,> 100 µM,> 100 µM,,> 100 µM,,,,,,,,,> 100 µM,
COc1cccc(-n2cc(-c3nc(Nc4cc(C)[nH]n4)c4ccccc4n3)nn2)c1,14 µM,8.92 µM,5.62 µM,11.7 µM,11 µM,9.23 µM,13.5 µM,15.7 µM,4.76 µM,1.45 µM,0.165 µM,2.88 µM,2.88 µM,0.228 µM,2.03 µM,6.61 µM,,
C[C@]12CC[C@H]3[C@@H](CCC4=CC(=O)CC[C@@]43C)[C@@H]1CC[C@@H]2C(=O)COS(=O)(=O)c1ccc(Br)cc1,22.5 µM,> 50.8 µM,19.7 µM,14.3 µM,47.3 µM,55.7 µM,3.12 µM,44.6 µM,,,,,,,,,,
CC(=O)[CH-]C(=O)c1ccccc1.CC(=O)[CH-]C(=O)c1ccccc1.CC1(C)OCC(C2OC3OC(C)(C)OC3C2[O-])O1.CC1(C)OCC(C2OC3OC(C)(C)OC3C2[O-])O1.[Ti+4] (stereo not drawn),,25.3 µM,79.7 µM,34.3 µM,30.8 µM,46.5 µM,,,,12.5 µM,29.9 µM,13.9 µM,13.8 µM,15.4 µM,,,> 100 µM,29.6 µM
